US12358859B2, “Series of compounds for treatment of skin diseases and other conditions” (Unigen, Inc., priority 2018, dated 2025)
pIC50: −log10 of the molar value. Where two headings read alike, the source gives them in different places.

How the values were obtained:
Assay type in all cases: cell-based
[1] = tested on: murine melanoma cells B16-F1; assay: Cell viability, tetrazolium reduction assay
Procedure: (§1) All test compounds were initially dissolved in 100% DMSO at a concentration of 400 mM. Then, 6 μL of 400 mM test compounds were added to 1.2 mL of the cell growth media giving a final concentration of 2 mM for the test compound and concentration of 0.5% for DMSO. The compounds were centrifuged for 1 h at 20,000×g. Supernatants (1 mL) were collected and filtered through sterile 0.2 μm filters. The compounds were serially diluted in two-fold increments in the sterile cell growth media supplemented with 0.5% DMSO, thus keeping the concentration of DMSO constant for all samples. These serially diluted compounds were subsequently used as two-fold concentrated stock solutions in the melanin production and cell viability assays. Equal volumes of 2× compounds were mixed with media containing 2 nM α-MSH to give a final concentration of 1 nM α-MSH, 0.5% DMSO, and 1× concentration of test compounds.
Viability of cells was measured using standard tetrazolium reduction assay based on redox potential of live cells. Cells were seeded in a clear-bottom 96-well plate in RPMI 1640 media with Glutamax (Fisher Scientific, cat #61870036) at a density of 5,000 cells/well. Cells were treated with test compounds dissolved in 100 μL RPMI 1640 media and incubated for 48 hours at 37° C. in a humidified atmosphere of 95% air and 5% CO2.
After incubation, 20 μL of Aqueous One Solution were added to each well and the plate was returned to the incubator for 30 minutes. Conversion of tetrazolium was monitored by measuring absorbance of cell wells at 492 nm using a TECAN Genios plate reader.
(§2) More than 90% percent of the melanin produced by cultured melanoma cells is found in extra-cellular media. Therefore, at the end of the experiment melanin-containing media was collected and relative amounts of melanin were determined by absorption at 492 nm. Viability of cells was determined by a commonly used colorimetric procedure that is based on conversion of the tetrazolium compounds to colored formazan products (using Promega's CellTiter96 AqueousOne assay). Dehydrogenase enzymes in metabolically active cells accomplish this conversion, and the amount of formazan product is directly proportional to the number of living cells in culture. Mean (n=2) absorption of wells containing no cells was subtracted as blanks. The results were computed as percent of wells that contained the cells but no test compounds.

[2] = tested on: murine melanoma cells B16-F1; assay: Melanin production by murine melanoma cells B16-F1; settings: Mus musculus, B16-F1, 1 nM α-MSH, 48 hours
Procedure: Selected compounds were then tested for the ability to suppress melanin production by the murine melanoma cells B16-F1 as detailed below.
Murine melanoma cells B16-F1 were purchased from the ATCC (Cat #CRL-6323). Cell Titer96 AqueousOne Solution was purchased from Promega (Cat #G3582). 0.2 μm pore size, low protein binding filters were purchased from PALL Life Sciences. (Cat #PN4454).
Alpha-MSH was purchased from the Sigma Aldrich (Cat #M4135-1MG). All tissue culture reagents were purchased from VWR (phenol-red-free DMEM, cat #12001-630, L-glutamine, cat #12001-698) and Fisher Scientific (Trypsin-EDTA, cat #25-200-056).
The B16-F1 cells were maintained in cell growth media (DMEM/High Glucose supplemented with glutamine, 10% fetal bovine serum, 50 units/ml penicillin, and 50 units/mL of streptomycin) at 37° C. in a humidified atmosphere of 95% air and 5% CO2.
as §1
B16-F1 cells were seeded into the wells of clear-bottom 24-well plates at 50,000 cells per well, in 0.5 mL of cell growth media. On the following day, 0.5 mL of freshly prepared test compounds containing α-MSH were added to the wells. The cells were maintained at 37° C. in a humidified atmosphere of 95% air and 5% CO2 for 48 hours. At the end of the incubation period, melanin-containing conditioned media was removed from the cells and transferred to another plate. To measure melanin content the light absorbance of conditioned media was taken at 492 nm using a TECAN Genios plate reader.
as §2

[3] = tested on: Propionibacterium acnes (ATCC11827); assay: P-acne MIC/MBC test; settings: Cutibacterium acnes; for MIC: ATCC11827, 24 h, lowest level that inhibits growth, turbidity, 1 day, read-out: MIC; for MBC: ATCC11827, lowest concentration required to kill the bacterium, read-out: MBC
Procedure: The anti-microbial activity of the tested compounds were evaluated using published methods (Modugno e. al. (1994) Antimicrobial agents and Chemotherapy 38: 2362-2368; […] et. al. (1973) Antimicrobial agents and Chemotherapy 3: 40-48. Propionibacterium acnes (ATCC11827) was cultured for 20 hours at 37° C. in Reinforced Clostridal medium. The test article and positive control were dissolved in 1% DMSO with an incubation volume of 1 mL. The time of assessment was 1 day. Measurement of turbidity was used as the method of quantification. The compounds were tested in duplicate at concentrations of 250 ug/mL, 125 ug/mL, 62 ug/mL, 31 ug/mL, 16 ug/mL, 8 ug/mL, 4 ug/mL, 2 ug/mL relative to positive control ampicillin at 0.1 ug/mL.

[4] = tested on: reconstructed skin (keratinocytes and melanocytes); assay: Reconstructed human skin model (Melanoderm); settings: for toxicity on reconstructed skin: at 0.05%
Procedure: The skin whitening effects of test compounds were studied using a reconstructed skin model, Melanoderm™ provided by MatTek Corp. (Ashland, Mass.) according to the manufacturer's specifications. Briefly, normal human epidermal keratinocytes and normal human melanocytes derived from dark skin donors were co-cultured on a surface of collagen-coated membrane to form multi-layered, highly differentiated skin tissue (MEL-300-B). The tissues were maintained in the CO2, incubator at 37° C. The apical surfaces of the reconstructed skin (9 mm in diameter) were exposed to air whereas the bottom surfaces remained in contact with 5 mL of maintenance medium, containing skin differentiating factors (EPI-100-NNM-113). Test compounds were formulated in 80% propylene glycol as follows: 10 mg of each test compound was dissolved in DMSO and diluted with 80% propylene glycol (1,2-propanediol, Sigma-Aldrich) to stock concentrations. The compounds were then sterilized by passing through 0.2 um filter and diluted in sterile water/propylene glycol to final test concentrations in 0.5% DMSO, 80% propylene glycol. In addition, the following controls were used: 80% propylene glycol with 0.5% DMSO, and 1% kojic acid in 80% propylene glycol.
‘Test compounds were applied to the apical surface of the tissues as follows: 25 μl of each test compound, 25 μl of 80% propylene glycol (vehicle control), and 25 μl of 1% kojic acid (positive control). The samples were reapplied every other day for 14 days. All the samples were tested in duplicate. At the end of the experiment microscopic images were taken.
The potential skin-whitening properties of test compounds were explored in a reconstructed skin model. The model consists of normal, human-derived epidermal keratinocytes and melanocytes, which have been co-cultured to form a multilayered, highly differentiated human epidermis. In this study the melanocytes were obtained from a highly pigmented donor.
Different concentrations of test compounds, 80% propylene glycol (the vehicle control), or 1% kojic acid (positive control) were repeatedly applied topically on the surface of the reconstructed skin for 15 days. […] Photographs of skin specimen taken after 15 days of the experiment show significant dose-dependent whitening effects on melanocytes, which appear on photographs as dark dendritic cells.

[5] = Tables 1-3, read-out: MELANIN PRODUCTION
[6] = FIGS. 2-8, read-out: IC50, inhibition in the production of melanin

Structure (SMILES)	CELL VIABILITY ([1]; mouse, 48 h) [µM]	pIC50 [2, 5]	MIC [3] [µg/mL]	MBC [3] [µg/mL]	LD50, cell viability ([1]; mouse, 48 h) [µM]	pIC50 [2, 6]	toxicity on reconstructed skin [4]	CELL VIABILITY ([1]; 48 hours, Tables 1-3) [µM]	whitening effects on melanocytes ([4]; topical, photographs after 14 days)
CC(C)=CCCC(C)=Cc1cccc(O)c1 (mixture of isomers) [Compound 2, (E/Z)-3-(2,6-dimethylhepta-1,5-dienyl)phenol]	66	4.09	–	–	–	–	–	–	–
CC(C)=CCC/C(C)=C/c1ccc(O)cc1O [Compound 3, (E/Z)-4-(2,6-dimethylhepta-1,5-dienyl)benzene-1,3-diol]	172	3.79	< 3.9	< 3.9	–	–	–	–	–
CC(C)=CCCC(C)/C=C/c1ccc2cc(O)ccc2c1 (stereo not drawn) [Compound 8, (E)-6-(3,7-Dimethylocta-1,6-dienyl) naphthalene-2-ol]	68	4.66	< 3.9	< 3.9	68	4.66	some toxicity	–	–
CC(C)=CCCC(C)/C=C/c1cccnc1 (stereo not drawn) [Compound 12, (E)-3-(3,7-dimethylocta-1,6-dienyl) pyridine]	–	4.13	< 3.9	< 3.9	385	4.13	some toxicity	385	significant whitening effects
CC(C)=CCCC(C)/C=C/c1ccccn1 (stereo not drawn) [Compound 13, (E)-2-(3,7-dimethylocta-1,6-dienyl) pyridine]	650	3.83	–	–	–	–	–	–	–
COc1ccc(/C=C/C(C)CCC=C(C)C)cn1 (stereo not drawn) [Compound 14, (E)-5-(3,7-dimethylocta-1,6-dienyl)-2-methoxypyridine]	369	3.83	–	–	–	–	–	–	–
CC(C)=CCCC(C)C/C=C/c1cc(O)cc(O)c1 (stereo not drawn) [Compound 16, (E)-5-(4,8-dimethylnona-1,7-dienyl) benzene-1,3-diol]	172	3.79	< 3.9	< 3.9	–	–	–	–	–
CC(C)=CCCC(C)C/C=C/c1cc(OCC(=O)O)cc(OCC(=O)O)c1 (stereo not drawn) [Compound 17, (E)-2,2′-(5-(4,8-dimethylnona-1,7-dienyl)-1,3-phenylene)bis(oxy)diacetic acid]	127	4.14	< 3.9	< 3.9	–	–	–	–	–
